Results from ChEMBL document CHEMBL1129930, “Analogues of methotrexate in rheumatoid arthritis. 2. Effects of 5-deazaaminopterin, 5,10-dideazaaminopterin, and analogues on type II collagen-induced arthritis in mice” (J Med Chem, 1997).

Assays:
Mus musculus [1] = assay: Tested for antiinflammatory activity on mouse type II collagen arthritis as Paw swelling of all animals in each group on day 37 at intraperitoneal dose of 3 mg/kg; assay type: functional
Mus musculus [2] = assay: Tested for antiinflammatory activity on mouse type II collagen arthritis as Paw swelling of all animals in each group on day 44 at intraperitoneal dose of 1.5 mg/kg; assay type: functional
Mus musculus [3] = assay: Tested for antiinflammatory activity on mouse type II collagen arthritis as Paw swelling of all animals in each group on day 44 at intraperitoneal dose of 3 mg/kg; assay type: functional
Mus musculus [4] = assay: Incidence of disease (mouse type II collagen) was scored as the percentage of animals within each experimental group that exhibited joint or limb inflammation on day 30 at intraperitoneal dose of 6 mg/kg; assay type: functional
Mus musculus [5] = assay: Incidence of disease (mouse type II collagen) was scored as the percentage of animals within each experimental group that exhibited joint or limb inflammation on day 37 at intraperitoneal dose of 1.5 mg/kg; assay type: functional
Mus musculus [6] = assay: Incidence of disease (mouse type II collagen) was scored as the percentage of animals within each experimental group that exhibited joint or limb inflammation on day 23 at intraperitoneal dose of 6 mg/kg; assay type: functional
Mus musculus [7] = assay: Incidence of disease (mouse type II collagen) was scored as the percentage of animals within each experimental group that exhibited joint or limb inflammation on day 30 at intraperitoneal dose of 3 mg/kg; assay type: functional
Mus musculus [8] = assay: Incidence of disease (mouse type II collagen) was scored as the percentage of animals within each experimental group that exhibited joint or limb inflammation on day 23 at intraperitoneal dose of 3 mg/kg; assay type: functional
Mus musculus [9] = assay: Tested for antiinflammatory activity on mouse type II collagen arthritis as Paw swelling of all animals in each group on day 23 at intraperitoneal dose of 1.5 mg/kg; assay type: functional
Mus musculus [10] = assay: Tested for antiinflammatory activity on mouse type II collagen arthritis as Paw swelling of all animals in each group on day 30 at intraperitoneal dose of 6 mg/kg; assay type: functional
Mus musculus [11] = assay: Incidence of disease (mouse type II collagen) was scored as the percentage of animals within each experimental group that exhibited joint or limb inflammation on day 37 at intraperitoneal dose of 3 mg/kg; assay type: functional
Mus musculus [12] = assay: Incidence of disease (mouse type II collagen) was scored as the percentage of animals within each experimental group that exhibited joint or limb inflammation on day 44 at intraperitoneal dose of 6 mg/kg; assay type: functional
Mus musculus [13] = assay: Incidence of disease (mouse type II collagen) was scored as the percentage of animals within each experimental group that exhibited joint or limb inflammation on day 23 at intraperitoneal dose of 1.5 mg/kg; assay type: functional
Mus musculus [14] = assay: Tested for antiinflammatory activity on mouse type II collagen arthritis as Paw swelling of all animals in each group on day 37 at intraperitoneal dose of 1.5 mg/kg; assay type: functional
Mus musculus [15] = assay: Tested for antiinflammatory activity on mouse type II collagen arthritis as Paw swelling of all animals in each group on day 30 at intraperitoneal dose of 3 mg/kg; assay type: functional
Mus musculus [16] = assay: Incidence of disease (mouse type II collagen) was scored as the percentage of animals within each experimental group that exhibited joint or limb inflammation on day 44 at intraperitoneal dose of 3 mg/kg; assay type: functional
Mus musculus [17] = assay: Tested for antiinflammatory activity on mouse type II collagen arthritis as Paw swelling of all animals in each group on day 37 at intraperitoneal dose of 6 mg/kg; assay type: functional
Mus musculus [18] = assay: Incidence of disease (mouse type II collagen) was scored as the percentage of animals within each experimental group that exhibited joint or limb inflammation on day 37 at intraperitoneal dose of 6 mg/kg; assay type: functional
Mus musculus [19] = assay: Tested for antiinflammatory activity on mouse type II collagen arthritis as Paw swelling of all animals in each group on day 23 at intraperitoneal dose of 6 mg/kg; assay type: functional
Mus musculus [20] = assay: Incidence of disease (mouse type II collagen) was scored as the percentage of animals within each experimental group that exhibited joint or limb inflammation on day 30 at intraperitoneal dose of 1.5 mg/kg; assay type: functional
Mus musculus [21] = assay: Tested for antiinflammatory activity on mouse type II collagen arthritis as Paw swelling of all animals in each group on day 23 at intraperitoneal dose of 3 mg/kg; assay type: functional
Mus musculus [22] = assay: Incidence of disease (mouse type II collagen) was scored as the percentage of animals within each experimental group that exhibited joint or limb inflammation on day 44 at intraperitoneal dose of 1.5 mg/kg; assay type: functional
Mus musculus [23] = assay: Tested for antiinflammatory activity on mouse type II collagen arthritis as Paw swelling of all animals in each group on day 30 at intraperitoneal dose of 1.5 mg/kg; assay type: functional
Mus musculus [24] = assay: Tested for antiinflammatory activity on mouse type II collagen arthritis as Paw swelling of all animals in each group on day 44 at intraperitoneal dose of 6 mg/kg; assay type: functional
L1210 = assay: Concentration required to inhibit the growth of L1210 cells.; assay type: functional, cell-based; settings: Mus musculus
[25] = Concentration required to inhibit the growth of chang liver cells.; assay type: functional; settings: Homo sapiens

Cc1c(CN(C)c2ccc(C(=O)NC(CCC(=O)O)C(=O)O)s2)cnc2nc(N)nc(N)c12 (stereo unspecified)
Paw swelling (Mus musculus [1]): 2.14 mm
Paw swelling (Mus musculus [2]): 2.33 mm
Paw swelling (Mus musculus [3]): 2.32 mm
Animals (Mus musculus [4]): 0%
Animals (Mus musculus [5]): 12%
Animals (Mus musculus [6]): 0%
Animals (Mus musculus [7]): 0%
Animals (Mus musculus [8]): 0%
Paw swelling (Mus musculus [9]): 2.12 mm
Paw swelling (Mus musculus [10]): 2.13 mm
Animals (Mus musculus [11]): 0%
Animals (Mus musculus [12]): 38%
Animals (Mus musculus [13]): 0%
Paw swelling (Mus musculus [14]): 2.21 mm
Paw swelling (Mus musculus [15]): 2.16 mm
Animals (Mus musculus [16]): 57%
Paw swelling (Mus musculus [17]): 2.19 mm
Animals (Mus musculus [18]): 12%
Paw swelling (Mus musculus [19]): 2.11 mm
Animals (Mus musculus [20]): 0%
Paw swelling (Mus musculus [21]): 2.13 mm
Animals (Mus musculus [22]): 50%

C=CCN(Cc1cnc2nc(N)nc(N)c2c1CC)c1ccc(C(=O)NC(CCC(=O)O)C(=O)O)cc1 (stereo unspecified)
Paw swelling (Mus musculus [1]): 2.34 mm
Paw swelling (Mus musculus [2]): 2.4 mm
Paw swelling (Mus musculus [3]): 2.55 mm
Animals (Mus musculus [4]): 25%
Animals (Mus musculus [5]): 38%
Paw swelling (Mus musculus [23]): 2.18 mm
Animals (Mus musculus [6]): 0%
Animals (Mus musculus [7]): 29%
Animals (Mus musculus [8]): 0%
Paw swelling (Mus musculus [9]): 2.14 mm
Paw swelling (Mus musculus [10]): 2.21 mm
Animals (Mus musculus [11]): 57%
Animals (Mus musculus [12]): 88%
Animals (Mus musculus [13]): 0%
Paw swelling (Mus musculus [14]): 2.26 mm
Paw swelling (Mus musculus [15]): 2.27 mm
Animals (Mus musculus [16]): 86%
Paw swelling (Mus musculus [17]): 2.28 mm
Animals (Mus musculus [18]): 50%
Paw swelling (Mus musculus [19]): 2.15 mm
Animals (Mus musculus [20]): 0%
Paw swelling (Mus musculus [21]): 2.16 mm
Animals (Mus musculus [22]): 62%
Paw swelling (Mus musculus [24]): 2.45 mm

CCCN(Cc1cnc2nc(N)nc(N)c2c1C)c1ccc(C(=O)NC(CCC(=O)O)C(=O)O)cc1 (stereo unspecified)
Paw swelling (Mus musculus [1]): 2.17 mm
Paw swelling (Mus musculus [2]): 2.22 mm
Paw swelling (Mus musculus [3]): 2.16 mm
Animals (Mus musculus [4]): 12%
Animals (Mus musculus [5]): 12%
Paw swelling (Mus musculus [23]): 2.15 mm
Animals (Mus musculus [6]): 0%
Animals (Mus musculus [7]): 0%
Animals (Mus musculus [8]): 0%
Paw swelling (Mus musculus [9]): 2.15 mm
IC50 (L1210): 11 nM
Paw swelling (Mus musculus [10]): 2.19 mm
Animals (Mus musculus [11]): 0%
Animals (Mus musculus [12]): 25%
IC50 [25]: 14 nM
Animals (Mus musculus [13]): 0%
Paw swelling (Mus musculus [14]): 2.21 mm
Paw swelling (Mus musculus [15]): 2.13 mm
Animals (Mus musculus [16]): 0%
Paw swelling (Mus musculus [17]): 2.2 mm
Animals (Mus musculus [18]): 12%
Paw swelling (Mus musculus [19]): 2.16 mm
Animals (Mus musculus [20]): 0%
Paw swelling (Mus musculus [21]): 2.12 mm
Animals (Mus musculus [22]): 25%
Paw swelling (Mus musculus [24]): 2.24 mm

Cc1c(CNc2ccc(C(=O)NC(CCC(=O)O)C(=O)O)cc2)cnc2nc(N)nc(N)c12 (stereo unspecified)
Paw swelling (Mus musculus [1]): 2.42 mm
Paw swelling (Mus musculus [2]): 2.55 mm
Paw swelling (Mus musculus [3]): 2.53 mm
Animals (Mus musculus [4]): 0%
Animals (Mus musculus [5]): 25%
Animals (Mus musculus [6]): 0%
Animals (Mus musculus [7]): 0%
Animals (Mus musculus [8]): 12%
Paw swelling (Mus musculus [9]): 2.13 mm
IC50 (L1210): 1.8 nM
Paw swelling (Mus musculus [10]): 2.16 mm
Animals (Mus musculus [11]): 40%
Animals (Mus musculus [12]): 100%
IC50 [25]: 123 nM
Animals (Mus musculus [13]): 0%
Paw swelling (Mus musculus [14]): 2.31 mm
Paw swelling (Mus musculus [15]): 2.18 mm
Animals (Mus musculus [16]): 60%
Paw swelling (Mus musculus [17]): 2.34 mm
Animals (Mus musculus [18]): 100%
Paw swelling (Mus musculus [19]): 2.12 mm
Animals (Mus musculus [20]): 0%
Paw swelling (Mus musculus [21]): 2.21 mm
Animals (Mus musculus [22]): 75%
Paw swelling (Mus musculus [24]): 2.59 mm

CCCCc1c(CNc2ccc(C(=O)NC(CCC(=O)O)C(=O)O)cc2)cnc2nc(N)nc(N)c12 (stereo unspecified)
Paw swelling (Mus musculus [1]): 2.2 mm
Paw swelling (Mus musculus [2]): 2.27 mm
Paw swelling (Mus musculus [3]): 2.27 mm
Animals (Mus musculus [4]): 0%
Animals (Mus musculus [5]): 38%
Paw swelling (Mus musculus [23]): 2.17 mm
Animals (Mus musculus [6]): 0%
Animals (Mus musculus [7]): 0%
Animals (Mus musculus [8]): 0%
Paw swelling (Mus musculus [9]): 2.16 mm
Paw swelling (Mus musculus [10]): 2.15 mm
Animals (Mus musculus [11]): 12%
Animals (Mus musculus [12]): 50%
Animals (Mus musculus [13]): 0%
Paw swelling (Mus musculus [14]): 2.23 mm
Paw swelling (Mus musculus [15]): 2.15 mm
Animals (Mus musculus [16]): 38%
Paw swelling (Mus musculus [17]): 2.27 mm
Animals (Mus musculus [18]): 50%
Paw swelling (Mus musculus [19]): 2.12 mm
Animals (Mus musculus [20]): 0%
Paw swelling (Mus musculus [21]): 2.16 mm
Animals (Mus musculus [22]): 38%
Paw swelling (Mus musculus [24]): 2.29 mm
